Measured values reported in US20210147343A1 (priority 2018, published 2021).
Where two headings read alike, the source gives them in different places.

Columns and labels:
[1] = molecular target: T1, kappa opioid receptor (KOR) (Homo sapiens, UniProt P41145); assay: cell-based; conditions: kOR cAMP IC50, CHO-K1 cells expressing kOR; after activation with dynorphin B
T1 construct: host or cells: CHO-K1
From the text: KOR cAMP Antagonist Assay

[2] = molecular target: T2, mu opioid receptor (MOR) (Homo sapiens, UniProt P35372); assay: MOR GTPγS agonist assay; assay type: biochemical; design: host or cells: CHO-K1
T2 sequence (P35372 whole entry): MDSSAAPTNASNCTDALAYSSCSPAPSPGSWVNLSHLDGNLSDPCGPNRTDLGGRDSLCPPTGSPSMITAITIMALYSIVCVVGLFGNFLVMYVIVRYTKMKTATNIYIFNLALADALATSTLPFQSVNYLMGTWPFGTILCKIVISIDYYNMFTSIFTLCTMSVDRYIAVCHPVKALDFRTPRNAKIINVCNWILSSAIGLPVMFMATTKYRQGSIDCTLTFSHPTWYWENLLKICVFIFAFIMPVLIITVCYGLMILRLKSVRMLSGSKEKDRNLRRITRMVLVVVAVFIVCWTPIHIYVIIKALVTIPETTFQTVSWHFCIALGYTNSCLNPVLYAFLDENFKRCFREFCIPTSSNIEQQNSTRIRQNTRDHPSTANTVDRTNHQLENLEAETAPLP
From the text: Membranes obtained from the stable cell lines over-expressing MOR were subjected to GTPγS assay using SPA beads (Perkin Elmer, Cat #RPNQ0001).

[3] = molecular target: T2, mu opioid receptor (MOR); assay: MOR cAMP antagonist assay; assay type: cell-based; design: host or cells: CHO-K1
From the text: MOR cAMP Antagonist Assay

[4] = molecular target: T2, mu opioid receptor (MOR); assay: MOR cAMP agonist assay
[5] = tested on: Male Sprague-Dawley rats; assay: Hot plate assay; assay type: in vivo; conditions: rat, SC
Method: Male Sprague-Dawley rats weighing 275-300 grams were used in the study, n=8-10 per group. Animals are injected SC with 0.9% normal saline solution. At 15, 45, and 80 min after the injection, animals were placed onto a hotplate set to 52 degrees centigrade, and baseline latency is recorded (baseline latency=average time to 2nd withdrawal response consisting of either a lick of a rear paw, shaking a rear paw, backwards walking or jumping). A day later animals were injected SC with test compounds either in vehicle solution, or with a mix of compounds in solution. Next the test latency was recorded (test latency=time to withdrawal on the hotplate measured at 15, 45, 80, 120, 180 and 240 min using the procedure described). Times were then converted to % maximum possible effect (% MPE)=(test_latecy−baseline_latency)/(30 sec-baseline_latency); where 30 sec is the cutoff where the animal is removed if no response ifs observed as it is the time point at which injury is expected to occur.

[6] = membranes of CHO cells over-expressing MOR, SPA beads, read-out: MOR GTPγS EC50

T1 sequence (P41145 whole entry): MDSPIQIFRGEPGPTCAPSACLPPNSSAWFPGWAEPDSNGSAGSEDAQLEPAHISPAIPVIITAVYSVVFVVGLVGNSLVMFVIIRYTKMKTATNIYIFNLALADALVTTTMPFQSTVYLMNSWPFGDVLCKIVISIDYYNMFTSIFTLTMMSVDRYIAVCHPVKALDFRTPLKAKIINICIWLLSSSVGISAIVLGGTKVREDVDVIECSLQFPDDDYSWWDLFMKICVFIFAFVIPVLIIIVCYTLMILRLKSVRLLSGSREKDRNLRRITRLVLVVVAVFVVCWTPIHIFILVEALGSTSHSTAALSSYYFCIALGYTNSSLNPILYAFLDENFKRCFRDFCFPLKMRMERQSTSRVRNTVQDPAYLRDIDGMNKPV

SMILES | IC50 [1] [nM] | EC50 [2, 6] [nM] | IC50 [3] [nM] | EC50 [4] [nM] | other results
CNC(=O)c1ccc(C[C@@H](CNC(=O)c2ccc(C)cc2C)N(C)C)cc1F [Compound C-40] | > 1000 | < 100 | < 100 |  | 
CN(C)[C@H](CNC(=O)c1cccc(Cl)c1)Cc1ccc(O)cc1Cl [Compound C-22] | 100 to 1000 | < 100 | > 1000 |  | 
Cc1cc(C[C@@H](CNC(=O)[C@@H]2C[C@]2(C)c2ccccc2)N(C)C)ccc1O [Compound B-42, (1R,2S)—N—((S)-2-(dimethylamino)-3-(4-hydroxy-3-methylphenyl)propyl)-2-methyl-2-phenylcyclopropane-1-carboxamide] | 100 to 1000 |  | < 100 | < 100 | 
CCN(CC)[C@H](CNC(=O)[C@@H]1C[C@]1(C)c1ccccc1)Cc1ccc(O)c(C)c1 [Compound B-41, (1R,2S)—N—((S)-2-(diethylamino)-3-(4-hydroxy-3-methylphenyl)propyl)-2-methyl-2-phenylcyclopropane-1-carboxamide] | 100 to 1000 |  | 100 to 1000 | < 100 | 
CN(C)[C@H](CNC(=O)[C@@H]1C[C@]1(C)c1ccccc1)Cc1ccc(O)c(Cl)c1 [Compound B-55, (1R,2S)—N—((S)-3-(3-chloro-4-hydroxyphenyl)-2-(dimethylamino)-propyl)-2-methyl-2-phenylcyclopropane-1-carboxamide] | < 100 |  | < 100 |  | 
Cc1cc(O)cc(C)c1C[C@@H](CNC(=O)c1ccc(Cl)c(Cl)c1)N(C)C [Compound C-24, (S)-3,4-dichloro-N-(2-(dimethylamino)-3-(4-hydroxy-2,6-dimethylphenyl)propyl)benzamide] | < 100 | < 100 | < 100 |  | 
CN(C)[C@H](CNC(=O)[C@@H]1C[C@]1(C)c1ccccc1)Cc1ccc(O)c(F)c1 [Compound B-30, (1R,2S)—N—((S)-2-(dimethylamino)-3-(3-fluoro-4-hydroxyphenyl)propyl)-2-methyl-2-phenylcyclopropane-1-carboxamide] | < 100 |  | < 100 |  | 
Cc1cc(O)cc(C)c1C[C@@H](CNC(=O)[C@@H]1C[C@]1(C)c1ccccc1)N(C)C [Compound B-47, (1R,2S)—N—((S)-2-(dimethylamino)-3-(4-hydroxy-2,6-dimethylphenyl)-propyl)-2-methyl-2-phenylcyclopropane-1-carboxamide] |  |  | < 100 | < 100 | 
CN(C)[C@H](CNC(=O)c1ccccc1-c1ccccc1)Cc1ccc(O)cc1 [Compound C-66, (S)—N-(2-(dimethylamino)-3-(4-hydroxyphenyl)propyl)-[1,1′-biphenyl]-2-carboxamide] | 100 to 1000 |  |  |  | EC50 [2]: > 1000 nM; IC50 ([3]; CHO-K1 cells expressing mOR, after activation with DAMGO at the EC80, read-out: MOR cAMP IC50): > 1000 nM
Cc1cc(O)ccc1C[C@@H](CNC(=O)[C@@H]1C[C@@]1(C)c1ccccc1)N(C)C [Compound B-56, (1R,2R)—N—((S)-2-(dimethylamino)-3-(4-hydroxy-2-methylphenyl)propyl)-2-methyl-2-phenylcyclopropane-1-carboxamide] | < 100 |  |  | < 100 | analgesic activity in the hotplate test (time to exhibit a withdrawal response) ([5]; hotplate 52 degrees centigrade, FIG. 1): analgesic
Cc1cc(C[C@@H](CNC(=O)[C@@H]2C[C@]2(C)c2ccccc2)N(C)C)cc(C)c1O [Compound B-36, (1R,2S)—N—((S)-2-(dimethylamino)-3-(4-hydroxy-3,5-dimethylphenyl)propyl)-2-methyl-2-phenylcyclopropane-1-carboxamide] | < 100 |  | < 100 |  | 
Cc1cc(O)cc(C)c1C[C@@H](CNC(=O)c1cc(Cl)c(Cl)cc1F)N(C)C [Compound C-57, (S)-4,5-dichloro-N-(2-(dimethylamino)-3-(4-hydroxy-2,6-dimethylphenyl)propyl)-2-fluorobenzamide] |  | < 100 | < 100 |  | 
Cc1cc(O)cc(C)c1C[C@@H](CNC(=O)c1ccc(C(F)(F)F)c(Cl)c1)N(C)C [Compound C-26] |  | < 100 | < 100 |  | 
CC(CC(=O)NC[C@H](Cc1ccc2c(c1)CC(=O)N2)N(C)C)c1ccccc1 (stereo in doubt) [Compound A-23, (S)—N—((S)-2-(dimethylamino)-3-(2-oxoindolin-5-yl)propyl)-3-phenylbutanamide] |  | < 100 |  |  | IC50 ([3]; read-out: MOR cAMP IC50, CHO-K1 cells expressing mOR, after activation with DAMGO at the EC80): < 100 nM
Cc1cc(O)cc(C)c1C[C@@H](CNC(=O)c1ccc(C(F)(F)F)c(F)c1)N(C)C [Compound C-30] |  | < 100 | < 100 |  | 
Cc1cc(O)ccc1C[C@@H](CNC(=O)[C@@H]1C[C@]1(C)c1ccccc1)N(C)C [Compound B-48, (1R,2S)—N—((S)-2-(dimethylamino)-3-(4-hydroxy-2-methylphenyl)propyl)-2-methyl-2-phenylcyclopropane-1-carboxamide] | < 100 |  | < 100 | > 1000 | 
CN(C)[C@H](CNC(=O)c1ccc(Cl)c(Cl)c1)Cc1ccc(O)c(Cl)c1 [Compound C-61, (S)-3,4-dichloro-N-(3-(3-chloro-4-hydroxyphenyl)-2-(dimethylamino)propyl)benzamide] |  | < 100 | < 100 |  | 
CN(C)[C@H](CNC(=O)[C@@H]1C[C@]1(C)c1ccccc1)Cc1ccc(O)cc1Cl [Compound B-15, (1R,2S)—N—((S)-3-(2-chloro-4-hydroxyphenyl)-2-(dimethylamino)-propyl)-2-methyl-2-phenylcyclopropane-1-carboxamide] | > 1000 |  |  | > 1000 | effect on the analgesic activity of agonist Compound B-56 in the hotplate test ([5]; co-dosed with Compound B-56, FIG. 1): blocks; effect on its own in the hotplate test ([5]; dosed alone, FIG. 1): no effect
CN(C)[C@H](CNC(=O)[C@@H]1C[C@]1(C)c1ccccc1)Cc1ccc(O)cc1F [Compound B-31, (1R,2S)—N—((S)-2-(dimethylamino)-3-(2-fluoro-4-hydroxyphenyl)propyl)-2-methyl-2-phenylcyclopropane-1-carboxamide] | < 100 |  | < 100 | < 100 | 
CNC(=O)c1ccc(C[C@@H](CNC(=O)c2ccc(Cl)c(Cl)c2)N(C)C)cc1F [Compound C-39] |  | < 100 | < 100 |  | 
